Measurements: paper PMC11864979, “First-in-class ultralong-target-residence-time p38α inhibitors as a mitosis-targeted therapy for colorectal cancer” (Nature Cancer, 2025)
Like-named read-outs stand apart in the source and are kept apart here.

How the values were obtained:
Assay in all cases: selectivity profiling in a panel of 340 wild-type kinases (Reaction Biology Europe)
Assay type in all cases: binding
[1] = target: T1, 340 wild-type kinases (Homo sapiens, UniProt P04049, Y340D/Y341D); details: read-out: RAF1 YDYD residual activity
T1 construct: purchased Reaction Biology Europe

[2] = target: T2, 340 wild-type kinases (Homo sapiens, UniProt P08631)
T2 construct: purchased Reaction Biology Europe

[3] = target: T3, 340 wild-type kinases (Homo sapiens, UniProt P17612)
T3 construct: purchased Reaction Biology Europe

[4] = target: T4, 340 wild-type kinases (Homo sapiens, UniProt P29317)
T4 construct: purchased Reaction Biology Europe

[5] = target: T5, 340 wild-type kinases (Homo sapiens, UniProt P29320)
T5 construct: purchased Reaction Biology Europe
T5 sequence (P29320 21-983): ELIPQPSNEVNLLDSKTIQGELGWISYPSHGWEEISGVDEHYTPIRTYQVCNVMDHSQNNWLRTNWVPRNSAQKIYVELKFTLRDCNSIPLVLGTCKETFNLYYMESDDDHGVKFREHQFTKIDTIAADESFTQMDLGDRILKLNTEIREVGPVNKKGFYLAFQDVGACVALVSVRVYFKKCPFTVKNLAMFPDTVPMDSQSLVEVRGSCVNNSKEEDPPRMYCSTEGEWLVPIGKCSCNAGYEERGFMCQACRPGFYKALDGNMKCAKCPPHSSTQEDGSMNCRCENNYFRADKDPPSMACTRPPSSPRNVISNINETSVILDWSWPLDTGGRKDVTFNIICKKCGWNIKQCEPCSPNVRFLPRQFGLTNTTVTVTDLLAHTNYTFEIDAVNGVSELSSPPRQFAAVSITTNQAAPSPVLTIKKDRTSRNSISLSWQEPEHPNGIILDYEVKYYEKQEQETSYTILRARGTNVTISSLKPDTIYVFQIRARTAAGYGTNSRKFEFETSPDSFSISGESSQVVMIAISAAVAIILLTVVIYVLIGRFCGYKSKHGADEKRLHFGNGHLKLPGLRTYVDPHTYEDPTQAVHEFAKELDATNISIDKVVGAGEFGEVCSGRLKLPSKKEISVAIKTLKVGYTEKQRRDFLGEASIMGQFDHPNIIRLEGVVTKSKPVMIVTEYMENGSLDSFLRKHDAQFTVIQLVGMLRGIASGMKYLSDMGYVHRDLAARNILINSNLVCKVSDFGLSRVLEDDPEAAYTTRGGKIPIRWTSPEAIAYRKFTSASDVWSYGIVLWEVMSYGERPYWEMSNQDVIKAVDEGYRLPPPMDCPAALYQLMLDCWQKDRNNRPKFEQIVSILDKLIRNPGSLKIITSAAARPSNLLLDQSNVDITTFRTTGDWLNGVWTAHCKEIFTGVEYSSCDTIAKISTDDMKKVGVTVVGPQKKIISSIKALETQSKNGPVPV

[6] = target: T6, 340 wild-type kinases (Homo sapiens, UniProt P30530)
T6 construct: purchased Reaction Biology Europe
T6 sequence (P30530 26-894): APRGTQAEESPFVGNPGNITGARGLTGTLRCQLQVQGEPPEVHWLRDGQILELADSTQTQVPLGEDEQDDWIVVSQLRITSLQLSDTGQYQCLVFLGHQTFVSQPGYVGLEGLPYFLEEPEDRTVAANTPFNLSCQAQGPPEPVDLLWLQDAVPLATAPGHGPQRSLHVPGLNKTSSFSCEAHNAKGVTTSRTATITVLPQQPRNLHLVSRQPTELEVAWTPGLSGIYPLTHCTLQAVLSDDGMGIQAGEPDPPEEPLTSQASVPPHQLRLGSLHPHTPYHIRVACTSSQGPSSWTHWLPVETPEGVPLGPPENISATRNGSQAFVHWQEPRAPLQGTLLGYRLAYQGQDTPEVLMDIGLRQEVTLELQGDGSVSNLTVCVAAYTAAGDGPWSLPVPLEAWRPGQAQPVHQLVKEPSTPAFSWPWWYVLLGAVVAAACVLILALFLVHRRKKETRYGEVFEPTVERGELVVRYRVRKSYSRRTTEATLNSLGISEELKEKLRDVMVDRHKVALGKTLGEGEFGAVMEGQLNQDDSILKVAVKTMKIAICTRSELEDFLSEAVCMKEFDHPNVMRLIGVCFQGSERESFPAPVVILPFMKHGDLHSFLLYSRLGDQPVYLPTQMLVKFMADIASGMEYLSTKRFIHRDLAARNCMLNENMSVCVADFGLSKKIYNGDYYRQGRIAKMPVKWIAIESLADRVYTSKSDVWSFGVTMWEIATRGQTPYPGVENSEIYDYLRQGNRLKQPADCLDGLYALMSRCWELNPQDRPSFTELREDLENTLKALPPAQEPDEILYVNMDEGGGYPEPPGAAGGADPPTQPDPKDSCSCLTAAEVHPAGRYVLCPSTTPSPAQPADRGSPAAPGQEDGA

[7] = target: T7, 340 wild-type kinases (Homo sapiens, UniProt P49336)
T7 construct: purchased Reaction Biology Europe

[8] = target: T8, 340 wild-type kinases (Homo sapiens, UniProt Q06187)
T8 construct: purchased Reaction Biology Europe

[9] = target: T9, 340 wild-type kinases (Homo sapiens, UniProt Q8N4C8)
T9 construct: purchased Reaction Biology Europe
T9 sequence (Q8N4C8 whole entry): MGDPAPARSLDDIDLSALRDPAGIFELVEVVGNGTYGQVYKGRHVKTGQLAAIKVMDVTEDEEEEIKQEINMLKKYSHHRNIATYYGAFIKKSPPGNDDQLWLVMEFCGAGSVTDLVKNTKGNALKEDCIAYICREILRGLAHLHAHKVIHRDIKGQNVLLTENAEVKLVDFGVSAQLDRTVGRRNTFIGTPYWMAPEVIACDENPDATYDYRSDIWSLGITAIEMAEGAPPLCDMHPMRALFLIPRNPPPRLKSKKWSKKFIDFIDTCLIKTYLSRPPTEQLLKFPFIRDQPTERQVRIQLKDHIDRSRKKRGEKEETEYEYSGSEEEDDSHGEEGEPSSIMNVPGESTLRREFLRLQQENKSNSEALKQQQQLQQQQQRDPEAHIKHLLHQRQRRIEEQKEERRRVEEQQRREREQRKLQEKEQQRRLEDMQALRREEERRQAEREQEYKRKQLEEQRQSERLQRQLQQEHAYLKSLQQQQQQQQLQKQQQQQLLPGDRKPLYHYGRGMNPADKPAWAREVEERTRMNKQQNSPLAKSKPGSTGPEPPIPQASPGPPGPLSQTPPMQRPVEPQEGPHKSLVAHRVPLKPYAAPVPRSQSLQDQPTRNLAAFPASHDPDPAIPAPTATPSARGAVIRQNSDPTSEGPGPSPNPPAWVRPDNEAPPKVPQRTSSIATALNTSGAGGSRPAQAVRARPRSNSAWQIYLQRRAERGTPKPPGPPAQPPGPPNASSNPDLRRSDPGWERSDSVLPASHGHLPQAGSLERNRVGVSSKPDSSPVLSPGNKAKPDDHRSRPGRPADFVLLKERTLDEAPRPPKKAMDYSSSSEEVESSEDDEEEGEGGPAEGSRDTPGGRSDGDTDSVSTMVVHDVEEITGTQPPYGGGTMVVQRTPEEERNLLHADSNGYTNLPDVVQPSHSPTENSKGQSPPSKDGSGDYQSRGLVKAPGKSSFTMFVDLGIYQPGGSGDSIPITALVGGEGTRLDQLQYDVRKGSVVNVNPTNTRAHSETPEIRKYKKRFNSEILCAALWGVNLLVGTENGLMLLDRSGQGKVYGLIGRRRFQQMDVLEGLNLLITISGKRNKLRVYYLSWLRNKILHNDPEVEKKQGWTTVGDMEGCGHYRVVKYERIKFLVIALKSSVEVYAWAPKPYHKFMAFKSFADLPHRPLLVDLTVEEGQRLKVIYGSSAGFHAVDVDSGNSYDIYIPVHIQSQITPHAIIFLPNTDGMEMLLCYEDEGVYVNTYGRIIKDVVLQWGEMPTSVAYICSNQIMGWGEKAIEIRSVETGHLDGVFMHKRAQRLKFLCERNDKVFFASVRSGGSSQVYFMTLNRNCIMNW

T8 sequence (Q06187 whole entry): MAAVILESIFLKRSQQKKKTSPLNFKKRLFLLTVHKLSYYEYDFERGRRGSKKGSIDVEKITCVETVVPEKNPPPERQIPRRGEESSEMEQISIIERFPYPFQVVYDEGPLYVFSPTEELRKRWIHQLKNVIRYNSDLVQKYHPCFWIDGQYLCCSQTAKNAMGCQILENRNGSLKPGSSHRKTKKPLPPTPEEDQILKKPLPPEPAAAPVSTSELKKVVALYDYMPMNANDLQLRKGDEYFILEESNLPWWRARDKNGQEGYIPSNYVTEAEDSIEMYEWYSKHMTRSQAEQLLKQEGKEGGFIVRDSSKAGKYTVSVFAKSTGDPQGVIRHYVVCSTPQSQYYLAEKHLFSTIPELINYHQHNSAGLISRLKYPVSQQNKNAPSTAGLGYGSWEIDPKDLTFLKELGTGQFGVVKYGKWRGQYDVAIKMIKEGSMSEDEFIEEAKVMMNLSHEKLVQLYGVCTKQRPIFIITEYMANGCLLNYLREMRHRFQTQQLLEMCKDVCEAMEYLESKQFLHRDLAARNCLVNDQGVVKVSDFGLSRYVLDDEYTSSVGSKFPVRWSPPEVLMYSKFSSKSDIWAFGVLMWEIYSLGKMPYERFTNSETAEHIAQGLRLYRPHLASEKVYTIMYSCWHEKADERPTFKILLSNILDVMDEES
T4 sequence (P29317 24-976): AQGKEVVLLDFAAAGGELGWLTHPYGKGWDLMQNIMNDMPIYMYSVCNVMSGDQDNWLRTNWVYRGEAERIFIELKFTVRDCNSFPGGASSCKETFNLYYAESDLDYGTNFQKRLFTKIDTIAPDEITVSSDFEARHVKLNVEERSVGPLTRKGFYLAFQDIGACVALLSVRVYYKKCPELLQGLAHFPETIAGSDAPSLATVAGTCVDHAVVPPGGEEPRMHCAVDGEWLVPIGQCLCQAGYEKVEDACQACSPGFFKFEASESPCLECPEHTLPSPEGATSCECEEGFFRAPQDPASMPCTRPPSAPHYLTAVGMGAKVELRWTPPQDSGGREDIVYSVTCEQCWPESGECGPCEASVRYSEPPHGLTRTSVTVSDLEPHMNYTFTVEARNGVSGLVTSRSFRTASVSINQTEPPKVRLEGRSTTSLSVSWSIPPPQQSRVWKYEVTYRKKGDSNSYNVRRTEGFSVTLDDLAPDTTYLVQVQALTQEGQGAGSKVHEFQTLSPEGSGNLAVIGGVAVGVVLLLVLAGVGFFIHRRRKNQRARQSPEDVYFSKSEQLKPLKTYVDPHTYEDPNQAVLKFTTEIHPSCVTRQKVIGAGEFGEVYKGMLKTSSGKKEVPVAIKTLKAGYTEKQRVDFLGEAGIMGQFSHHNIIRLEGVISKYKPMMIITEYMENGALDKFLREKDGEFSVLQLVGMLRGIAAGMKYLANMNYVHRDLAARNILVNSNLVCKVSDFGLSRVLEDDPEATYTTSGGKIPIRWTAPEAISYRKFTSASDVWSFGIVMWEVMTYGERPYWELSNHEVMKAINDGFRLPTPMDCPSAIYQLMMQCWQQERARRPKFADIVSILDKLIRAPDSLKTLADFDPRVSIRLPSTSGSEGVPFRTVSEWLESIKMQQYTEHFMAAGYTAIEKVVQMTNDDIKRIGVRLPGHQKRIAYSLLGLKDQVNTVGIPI
T2 sequence (P08631 whole entry): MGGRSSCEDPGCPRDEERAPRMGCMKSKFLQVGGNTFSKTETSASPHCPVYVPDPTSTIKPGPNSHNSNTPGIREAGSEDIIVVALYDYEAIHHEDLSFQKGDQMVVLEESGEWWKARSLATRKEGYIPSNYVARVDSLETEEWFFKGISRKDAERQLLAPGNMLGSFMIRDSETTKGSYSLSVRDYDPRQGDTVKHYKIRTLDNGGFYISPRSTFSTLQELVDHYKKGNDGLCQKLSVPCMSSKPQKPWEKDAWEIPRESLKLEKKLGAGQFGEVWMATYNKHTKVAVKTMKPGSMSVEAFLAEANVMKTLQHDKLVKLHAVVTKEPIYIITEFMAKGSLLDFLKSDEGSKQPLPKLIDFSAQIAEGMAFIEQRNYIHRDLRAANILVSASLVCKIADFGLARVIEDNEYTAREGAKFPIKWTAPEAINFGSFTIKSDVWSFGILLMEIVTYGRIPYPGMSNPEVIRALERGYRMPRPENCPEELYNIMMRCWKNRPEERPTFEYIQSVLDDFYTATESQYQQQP
T7 sequence (P49336 whole entry): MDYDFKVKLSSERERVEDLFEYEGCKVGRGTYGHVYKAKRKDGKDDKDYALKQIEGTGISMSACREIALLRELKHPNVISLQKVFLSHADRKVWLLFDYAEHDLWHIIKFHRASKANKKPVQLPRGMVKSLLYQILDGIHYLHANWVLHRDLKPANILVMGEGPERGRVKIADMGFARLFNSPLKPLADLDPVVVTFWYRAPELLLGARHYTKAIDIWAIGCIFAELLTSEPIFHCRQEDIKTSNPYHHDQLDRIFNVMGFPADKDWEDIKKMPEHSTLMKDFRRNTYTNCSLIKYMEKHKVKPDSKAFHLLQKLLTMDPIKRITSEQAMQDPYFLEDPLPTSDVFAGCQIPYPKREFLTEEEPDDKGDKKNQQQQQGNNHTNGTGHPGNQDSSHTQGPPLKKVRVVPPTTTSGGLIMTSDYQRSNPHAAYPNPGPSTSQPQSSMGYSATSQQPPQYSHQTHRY
T1 sequence (P04049 whole entry Y340D/Y341D): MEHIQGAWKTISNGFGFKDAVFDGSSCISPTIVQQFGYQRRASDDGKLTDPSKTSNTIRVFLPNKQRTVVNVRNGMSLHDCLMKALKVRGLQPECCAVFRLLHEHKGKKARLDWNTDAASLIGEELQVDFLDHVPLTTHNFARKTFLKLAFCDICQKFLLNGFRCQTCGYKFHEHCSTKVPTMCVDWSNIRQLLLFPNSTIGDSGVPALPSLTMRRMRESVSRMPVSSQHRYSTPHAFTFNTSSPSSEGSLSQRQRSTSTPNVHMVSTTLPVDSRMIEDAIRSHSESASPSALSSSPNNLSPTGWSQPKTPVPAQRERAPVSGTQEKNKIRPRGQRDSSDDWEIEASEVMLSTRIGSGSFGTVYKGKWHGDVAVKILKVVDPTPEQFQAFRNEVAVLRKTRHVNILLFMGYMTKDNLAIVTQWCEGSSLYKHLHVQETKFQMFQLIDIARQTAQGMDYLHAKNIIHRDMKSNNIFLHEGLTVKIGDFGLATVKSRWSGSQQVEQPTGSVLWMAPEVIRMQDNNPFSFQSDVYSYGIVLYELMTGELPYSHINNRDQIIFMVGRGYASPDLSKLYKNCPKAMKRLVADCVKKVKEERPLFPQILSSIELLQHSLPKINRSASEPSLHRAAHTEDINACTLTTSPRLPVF

`CNC(=O)c1ccc2c(c1)C(=O)c1ccc(Nc3ccc(F)c(NC(=O)C4CC4)c3)cc1CC2` [Compound 2015] gave a remaining activity at 0.2 µM ([1]; 0.2 µM 2015) of 80.3%, a remaining activity at 1 µM ([1]; 1 µM 2015) of 88.8% and a remaining activity at 0.2 µM ([2]; 0.2 µM 2015, read-out: HCK residual activity) of 124%. It also gave a remaining activity at 1 µM ([2]; 1 µM 2015, read-out: HCK residual activity) of 109%, a remaining activity at 0.2 µM ([2]; HCK, 0.2 µM, read-out: residual activity) of 124% and a remaining activity at 1 µM ([2]; HCK, 1 µM, read-out: residual activity) of 109%. The remaining activity at 0.2 µM ([3]; 0.2 µM 2015, read-out: PKA residual activity) was 124%, the remaining activity at 1 µM ([3]; 1 µM 2015, read-out: PKA residual activity) was 97.7% and the remaining activity at 0.2 µM ([3]; PKA, 0.2 µM, read-out: residual activity) was 124%. The remaining activity at 1 µM ([3]; PKA, 1 µM, read-out: residual activity) was 97.8%, the remaining activity at 0.2 µM ([4]; 0.2 µM 2015, read-out: EPHA2 residual activity) was 98.4% and the remaining activity at 1 µM ([4]; 1 µM 2015, read-out: EPHA2 residual activity) was 102%. For the same compound, the remaining activity at 0.2 µM ([4]; EPHA2, 0.2 µM, read-out: residual activity) was 98.4%, the remaining activity at 1 µM ([4]; EPHA2, 1 µM, read-out: residual activity) was 102% and the remaining activity at 0.2 µM ([5]; 0.2 µM 2015, read-out: EPHA3 residual activity) was 100%. The remaining activity at 1 µM ([5]; 1 µM 2015, read-out: EPHA3 residual activity) was 96.4%, the remaining activity at 0.2 µM ([5]; EPHA3, 0.2 µM, read-out: residual activity) was 100% and the remaining activity at 1 µM ([5]; EPHA3, 1 µM, read-out: residual activity) was 96.3%. For the same compound, the remaining activity at 0.2 µM ([6]; 0.2 µM 2015, read-out: AXL residual activity) was 106%, the remaining activity at 1 µM ([6]; 1 µM 2015, read-out: AXL residual activity) was 92.6% and the remaining activity at 0.2 µM ([6]; AXL, 0.2 µM, read-out: residual activity) was 106%. The remaining activity at 1 µM ([6]; AXL, 1 µM, read-out: residual activity) was 92.6%, the remaining activity at 0.2 µM ([7]; 0.2 µM 2015, read-out: CDK8/CycC residual activity) was 92.5% and the remaining activity at 1 µM ([7]; 1 µM 2015, read-out: CDK8/CycC residual activity) was 85.2%. It also gave a remaining activity at 0.2 µM ([7]; CDK8/CycC, 0.2 µM, read-out: residual activity) of 92.5%, a remaining activity at 1 µM ([7]; CDK8/CycC, 1 µM, read-out: residual activity) of 85.2% and a remaining activity at 0.2 µM ([8]; 0.2 µM 2015, read-out: BTK residual activity) of 116%. For the same compound, the remaining activity at 1 µM ([8]; 1 µM 2015, read-out: BTK residual activity) was 106%, the remaining activity at 0.2 µM ([8]; BTK, 0.2 µM, read-out: residual activity) was 116% and the remaining activity at 1 µM ([8]; BTK, 1 µM, read-out: residual activity) was 106%. For the same compound, the remaining activity at 0.2 µM ([9]; 0.2 µM 2015, read-out: MINK1 residual activity) was 88.4%, the remaining activity at 1 µM ([9]; 1 µM 2015, read-out: MINK1 residual activity) was 84.4% and the remaining activity at 0.2 µM ([9]; MINK1, 0.2 µM, read-out: residual activity) was 88.4%. It also gave a remaining activity at 1 µM ([9]; MINK1, 1 µM, read-out: residual activity) of 84.4%.
